{
  "source": "patent US20200017495A1",
  "about": "“NOVEL HETEROCYCLIC COMPOUNDS AND THEIR USE IN PREVENTING OR TREATING BACTERIAL INFECTIONS” (priority 2017, published 2020)",
  "tested_on": "Klebsiella pneumoniae (KPN) isolates",
  "assay": "MIC of compounds alone and combined with antibacterials, broth microdilution (CLSI)",
  "assay_type": "cell-based",
  "in_short": "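Log-phase isolates were inoculated at a final 5.10^5 CFU/mL in cation-adjusted Mueller-Hinton broth and incubated 16-20 h at 35° C in ambient air. MIC was the lowest concentration preventing visible growth; for combinations, the antibacterial MIC was read at each compound concentration.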",
  "data": [
    {"smiles": "C=CC1=C(C(=O)O)N2C(=O)[C@@H](NC(=O)/C(=N\\OCC(=O)O)c3csc(N)n3)[C@H]2SC1", "note": "[FIX, Cefixime]", "values": [
      {"measurement": "MIC ATB in combination", "setting": "KPN UFR218, CLA @ 4 μg/mL", "value": 1, "unit": "µg/mL"},
      {"measurement": "MIC ATB in combination", "setting": "KPN UFR219, AF2 @ 8 μg/mL", "value": 0.5, "unit": "µg/mL"},
      {"measurement": "MIC ATB in combination", "setting": "KPN UFR219, AF3 @ 8 μg/mL", "value": "<=0.25 μg/mL"},
      {"measurement": "MIC ATB in combination", "setting": "KPN UFR219, CLA @ 4 μg/mL", "value": 0.5, "unit": "µg/mL"},
      {"measurement": "MIC ATB in combination", "setting": "KPN UFR220, AF2 @ 8 μg/mL", "value": "<0.25", "unit": "µg/mL"},
      {"measurement": "MIC ATB in combination", "setting": "KPN UFR220, AF3 @ 8 μg/mL", "value": "<0.25", "unit": "µg/mL"},
      {"measurement": "MIC ATB in combination", "setting": "KPN UFR220, CLA @ 4 μg/mL", "value": ">128", "unit": "µg/mL"},
      {"measurement": "MIC ATB in combination", "setting": "KPN UFR221, AF2 @ 8 μg/mL", "value": "<0.25", "unit": "µg/mL"},
      {"measurement": "MIC ATB in combination", "setting": "KPN UFR221, AF3 @ 8 μg/mL", "value": "<0.25", "unit": "µg/mL"},
      {"measurement": "MIC ATB in combination", "setting": "KPN UFR221, CLA @ 4 μg/mL", "value": 128, "unit": "µg/mL"},
      {"measurement": "MIC ATB in combination", "setting": "KPN UFR222, AF2 @ 8 μg/mL", "value": "<0.25", "unit": "µg/mL"},
      {"measurement": "MIC ATB in combination", "setting": "KPN UFR222, AF3 @ 8 μg/mL", "value": "<0.25", "unit": "µg/mL"},
      {"measurement": "MIC ATB in combination", "setting": "KPN UFR222, CLA @ 4 μg/mL", "value": ">128", "unit": "µg/mL"},
      {"measurement": "MIC ATB in combination", "setting": "KPN UFR227O, AF2 @ 8 μg/mL", "value": 8, "unit": "µg/mL"},
      {"measurement": "MIC ATB in combination", "setting": "KPN UFR227O, AF3 @ 8 μg/mL", "value": 16, "unit": "µg/mL"},
      {"measurement": "MIC ATB in combination", "setting": "KPN UFR227O, CLA @ 4 μg/mL", "value": ">128", "unit": "µg/mL"},
      {"measurement": "MIC", "setting": "strain KPN 6299, genotype TEM-1, SHV-11, OXA-163", "value": 8, "unit": "µg/mL"},
      {"measurement": "MIC", "setting": "strain KPN 110376, compound alone", "value": ">128", "unit": "µg/mL"},
      {"measurement": "MIC", "setting": "strain KPN 110376, genotype TEM-1, SHV-1, CTX-M-15, OXA-1, OXA-48", "value": ">128", "unit": "µg/mL"},
      {"measurement": "MIC", "setting": "strain KPN 121206, genotype SHV-1, NDM-1", "value": ">128", "unit": "µg/mL"},
      {"measurement": "MIC", "setting": "strain KPN 131119, compound alone", "value": ">128", "unit": "µg/mL"},
      {"measurement": "MIC", "setting": "strain KPN 131119, genotype TEM-1, SHV-11, CTX-M-15, OXA-1, OXA-48", "value": ">128", "unit": "µg/mL"},
      {"measurement": "MIC", "setting": "strain KPN 140347, genotype CTX-M-15, NDM-1, antibiotic alone", "value": ">128", "unit": "µg/mL"},
      {"measurement": "MIC ATB in combination", "setting": "strain KPN 140347, with AF2 @ 8 μg/mL", "value": ">128", "unit": "µg/mL"},
      {"measurement": "MIC ATB in combination", "setting": "strain KPN 140347, with AF3 @ 8 μg/mL", "value": ">128", "unit": "µg/mL"},
      {"measurement": "MIC ATB in combination", "setting": "strain KPN 140347, with CLA @ 4 μg/mL", "value": ">128", "unit": "µg/mL"},
      {"measurement": "MIC", "setting": "strain KPN 140513, genotype TEM-1, SHV-11, CTX-M-15, KPC-3", "value": ">128", "unit": "µg/mL"},
      {"measurement": "MIC", "setting": "strain KPN 160143, genotype TEM-1, SHV-1, CTX-M-15, KPC-2, OXA-1", "value": ">128", "unit": "µg/mL"},
      {"measurement": "MIC", "setting": "strain KPN 190128, genotype TEM-1, SHV-32, CTX-M-15, OXA-1", "value": ">128", "unit": "µg/mL"},
      {"measurement": "MIC", "setting": "strain KPN 190270, compound alone", "value": ">128", "unit": "µg/mL"},
      {"measurement": "MIC", "setting": "strain KPN 190270, genotype TEM-1, SHV-76, CTX-M-15, OXA-1", "value": ">128", "unit": "µg/mL"},
      {"measurement": "MIC", "setting": "strain KPN 190425, genotype TEM-1, SHV-1, CTX-M-15, OXA-1", "value": ">128", "unit": "µg/mL"},
      {"measurement": "MIC", "setting": "strain KPN 190551, genotype TEM-1, SHV-1, CTX-M-15, OXA-1", "value": ">128", "unit": "µg/mL"},
      {"measurement": "MIC", "setting": "strain KPN 200047, genotype TEM-1, SHV-32, CTX-M-15, OXA-1", "value": ">128", "unit": "µg/mL"},
      {"measurement": "MIC", "setting": "strain KPN 200327, genotype TEM-1, SHV-1, CTX-M-15, OXA-1", "value": 64, "unit": "µg/mL"},
      {"measurement": "MIC", "setting": "strain KPN 260251, genotype TEM-1, SHV-11, SHV-12, CTX-M-15, KPC-2", "value": ">128", "unit": "µg/mL"},
      {"measurement": "MIC", "setting": "strain KPN 260252, genotype TEM-1, SHV-11, KPC-3", "value": ">128", "unit": "µg/mL"},
      {"measurement": "MIC", "setting": "strain KPN 260376, genotype SHV-1, SHV-49, OXA-1", "value": ">128", "unit": "µg/mL"},
      {"measurement": "MIC", "setting": "strain KPN 270077, genotype TEM-1, SHV-1, CTX-M-15", "value": ">128", "unit": "µg/mL"},
      {"measurement": "MIC", "setting": "strain KPN 700603, genotype SHV-18, OXA-2", "value": 16, "unit": "µg/mL"},
      {"measurement": "MIC", "setting": "strain KPN ARA, genotype TEM-1, SHV-11, CTX-M-15, OXA-1, OXA-48", "value": ">128", "unit": "µg/mL"},
      {"measurement": "MIC", "setting": "strain KPN BAA-1898, genotype TEM-1, SHV-11, SHV-12, KPC-2", "value": ">128", "unit": "µg/mL"},
      {"measurement": "MIC", "setting": "strain KPN LIB, genotype SHV-11, OXA-48", "value": "<=0.25 μg/mL"},
      {"measurement": "MIC", "setting": "strain KPN UFR22_O, genotype TEM-1, SHV-1, OXA-48", "value": "<=0.25 μg/mL"},
      {"measurement": "MIC", "setting": "strain KPN UFR23, genotype TEM-1, SHV-1, OXA-48", "value": "<=0.25 μg/mL"},
      {"measurement": "MIC", "setting": "strain KPN UFR24, genotype TEM-1, SHV-2, SHV-11, OXA-1, OXA-48, OXA-47", "value": ">128", "unit": "µg/mL"},
      {"measurement": "MIC", "setting": "strain KPN UFR25, compound alone", "value": ">128", "unit": "µg/mL"},
      {"measurement": "MIC", "setting": "strain KPN UFR25, genotype TEM-1, SHV-11, CTX-M-15, OXA-162", "value": ">128", "unit": "µg/mL"},
      {"measurement": "MIC", "setting": "strain KPN UFR27, genotype TEM-1, SHV-28, CTX-M-15, OXA-204", "value": ">128", "unit": "µg/mL"},
      {"measurement": "MIC", "setting": "strain KPN UFR28, genotype TEM-1, SHV-1, CTX-M-15, OXA-1, OXA-232", "value": 256, "unit": "µg/mL"},
      {"measurement": "MIC", "setting": "strain KPN UFR33, genotype TEM-2, SHV-12, CTX-M-15, OXA-1, OXA-10", "value": ">128", "unit": "µg/mL"},
      {"measurement": "MIC", "setting": "strain KPN UFR42, genotype SHV-2, CTX-M-15 OXA-1, OXA-181, NDM-1", "value": ">128", "unit": "µg/mL"},
      {"measurement": "MIC", "setting": "strain KPN UFR43, genotype SHV-11, CTX-M-15, CMY-2, OXA-1, NDM-1", "value": ">128", "unit": "µg/mL"},
      {"measurement": "MIC", "setting": "strain KPN UFR46, genotype TEM-1, SHV-12, CTX-M-15, OXA-9, VIM-1", "value": ">128", "unit": "µg/mL"},
      {"measurement": "MIC", "setting": "strain KPN UFR53, genotype TEM-1, IMP-1", "value": ">128", "unit": "µg/mL"},
      {"measurement": "MIC", "setting": "strain KPN UFR65, genotype TEM-1, SHV-11, KPC-2", "value": ">128", "unit": "µg/mL"},
      {"measurement": "MIC", "setting": "strain KPN UFR66, compound alone", "value": 512, "unit": "µg/mL"},
      {"measurement": "MIC", "setting": "strain KPN UFR66, genotype TEM-1, SHV-11, CTX-M-15, KPC-2", "value": 512, "unit": "µg/mL"},
      {"measurement": "MIC", "setting": "strain KPN UFR67, genotype TEM-1, SHV-11, KPC-3", "value": ">128", "unit": "µg/mL"},
      {"measurement": "MIC", "setting": "strain KPN UFR68, compound alone", "value": ">128", "unit": "µg/mL"},
      {"measurement": "MIC", "setting": "strain KPN UFR68, genotype TEM-1, SHV-11, CTX-M-15, KPC-3", "value": ">128", "unit": "µg/mL"}
    ]}
  ]
}
